Assay results from ChEMBL document CHEMBL4145544, “Discovery and optimization of 1-(1H-indol-1-yl)ethanone derivatives as CBP/EP300 bromodomain inhibitors for the treatment of castration-resistant prostate cancer” (Eur J Med Chem, 2018).
The source made the active and inactive calls. The rule behind the calls is not given here.

Experiments:
PC-3 = experiment: Antiproliferative activity against human PC3 cells after 96 hrs by Cell-Titer Glo assay; type: functional, cell-based; settings: PC-3, 96 h
CWR22R [1] = experiment: Anticlonogenic activity against human 22Rv1 cells at 4 uM after 14 days by crystal violet staining based assay relative to control; type: functional
LNCaP C4-2B [2] = experiment: Anticlonogenic activity against human C4-2B cells at 4 uM after 14 days by crystal violet staining based assay relative to control; type: functional
[3] = target: T1, CREB-binding protein/Histone acetyltransferase p300 (Homo sapiens) (UniProt Q09472+Q92793); experiment: Inhibition of EP300/CBP in human LNCAP cells transfected with PSA-Luc reporter plasmid after 24 hrs by luciferase reporter gene assay; type: cell-based
[4] = target: T1, CREB-binding protein/Histone acetyltransferase p300 (Homo sapiens); experiment: Inhibition of EP300/CBP in human LNCAP cells assessed as downregulation of AR-regulated KLK2 mRNA expression at 1 to 5 uM after 48 hrs by qRT-PCR method; type: cell-based
[5] = target: T1, CREB-binding protein/Histone acetyltransferase p300 (Homo sapiens); experiment: Inhibition of EP300/CBP in human LNCAP cells assessed as downregulation of AR-regulated TMPRSS2 mRNA expression at 1 to 5 uM after 48 hrs by qRT-PCR method; type: cell-based
CWR22R [6] = experiment: Anticlonogenic activity against human 22Rv1 cells after 14 days by crystal violet staining based assay; type: functional, cell-based
MCF7 = experiment: Antiproliferative activity against human MCF7 cells after 96 hrs by Cell-Titer Glo assay; type: functional, cell-based; settings: MCF7, 96 h
LNCaP [7] = experiment: Antiproliferative activity against human LNCAP cells after 72 hrs by Cell-Titer Glo assay; type: functional, cell-based; settings: Homo sapiens, LNCaP, 72 h; read-out: IC50
L02 = experiment: Antiproliferative activity against human HL7702 cells after 96 hrs by Cell-Titer Glo assay; type: cell-based; settings: L02, 96 h
CWR22R [8] = experiment: cells; settings: Homo sapiens, 22Rv1, 72 h
Description: Antiproliferative activity against human 22Rv1 cells after 72 hrs by Cell-Titer Glo assay

MDA-MB-231 = experiment: Antiproliferative activity against human MDA-MB-231 cells after 96 hrs by Cell-Titer Glo assay; type: functional, cell-based; settings: MDA-MB-231, 96 h
CWR22R [9] = experiment: Potency index, ratio of enzalutamide IC50 to compound IC50 for antiproliferative activity against human 22Rv1 cells; type: functional
[10] = target: T1, CREB-binding protein/Histone acetyltransferase p300 (Homo sapiens); experiment: Inhibition of EP300/CBP in human LNCAP cells assessed as downregulation of AR-regulated PSA mRNA expression at 1 to 5 uM after 48 hrs by qRT-PCR method; type: cell-based
[11] = target: T1, CREB-binding protein/Histone acetyltransferase p300 (Homo sapiens); experiment: Inhibition of EP300/CBP in human LNCAP cells assessed as downregulation of Myc mRNA expression at 1 to 5 uM after 48 hrs by qRT-PCR method; type: cell-based
[12] = target: T1, CREB-binding protein/Histone acetyltransferase p300 (Homo sapiens); experiment: Inhibition of EP300/CBP in human LNCAP cells assessed as downregulation of full length AR mRNA expression at 1 to 5 uM after 48 hrs by qRT-PCR method; type: cell-based
LNCaP [13] = experiment: Potency index, ratio of enzalutamide IC50 to compound IC50 for antiproliferative activity against human LNCAP cells; type: functional
HFL1 = experiment: Antiproliferative activity against HFL1 cells after 72 hrs by Cell-Titer Glo assay; type: cell-based; settings: Homo sapiens, HFL1, 72 h
Hs-578T = experiment: Antiproliferative activity against human Hs 578T cells after 72 hrs by Cell-Titer Glo assay; type: functional, cell-based
LNCaP C4-2B [14] = experiment: Anticlonogenic activity against human C4-2B cells after 14 days by crystal violet staining based assay; type: functional, cell-based

T1 sequence (Q09472 whole entry, looked up): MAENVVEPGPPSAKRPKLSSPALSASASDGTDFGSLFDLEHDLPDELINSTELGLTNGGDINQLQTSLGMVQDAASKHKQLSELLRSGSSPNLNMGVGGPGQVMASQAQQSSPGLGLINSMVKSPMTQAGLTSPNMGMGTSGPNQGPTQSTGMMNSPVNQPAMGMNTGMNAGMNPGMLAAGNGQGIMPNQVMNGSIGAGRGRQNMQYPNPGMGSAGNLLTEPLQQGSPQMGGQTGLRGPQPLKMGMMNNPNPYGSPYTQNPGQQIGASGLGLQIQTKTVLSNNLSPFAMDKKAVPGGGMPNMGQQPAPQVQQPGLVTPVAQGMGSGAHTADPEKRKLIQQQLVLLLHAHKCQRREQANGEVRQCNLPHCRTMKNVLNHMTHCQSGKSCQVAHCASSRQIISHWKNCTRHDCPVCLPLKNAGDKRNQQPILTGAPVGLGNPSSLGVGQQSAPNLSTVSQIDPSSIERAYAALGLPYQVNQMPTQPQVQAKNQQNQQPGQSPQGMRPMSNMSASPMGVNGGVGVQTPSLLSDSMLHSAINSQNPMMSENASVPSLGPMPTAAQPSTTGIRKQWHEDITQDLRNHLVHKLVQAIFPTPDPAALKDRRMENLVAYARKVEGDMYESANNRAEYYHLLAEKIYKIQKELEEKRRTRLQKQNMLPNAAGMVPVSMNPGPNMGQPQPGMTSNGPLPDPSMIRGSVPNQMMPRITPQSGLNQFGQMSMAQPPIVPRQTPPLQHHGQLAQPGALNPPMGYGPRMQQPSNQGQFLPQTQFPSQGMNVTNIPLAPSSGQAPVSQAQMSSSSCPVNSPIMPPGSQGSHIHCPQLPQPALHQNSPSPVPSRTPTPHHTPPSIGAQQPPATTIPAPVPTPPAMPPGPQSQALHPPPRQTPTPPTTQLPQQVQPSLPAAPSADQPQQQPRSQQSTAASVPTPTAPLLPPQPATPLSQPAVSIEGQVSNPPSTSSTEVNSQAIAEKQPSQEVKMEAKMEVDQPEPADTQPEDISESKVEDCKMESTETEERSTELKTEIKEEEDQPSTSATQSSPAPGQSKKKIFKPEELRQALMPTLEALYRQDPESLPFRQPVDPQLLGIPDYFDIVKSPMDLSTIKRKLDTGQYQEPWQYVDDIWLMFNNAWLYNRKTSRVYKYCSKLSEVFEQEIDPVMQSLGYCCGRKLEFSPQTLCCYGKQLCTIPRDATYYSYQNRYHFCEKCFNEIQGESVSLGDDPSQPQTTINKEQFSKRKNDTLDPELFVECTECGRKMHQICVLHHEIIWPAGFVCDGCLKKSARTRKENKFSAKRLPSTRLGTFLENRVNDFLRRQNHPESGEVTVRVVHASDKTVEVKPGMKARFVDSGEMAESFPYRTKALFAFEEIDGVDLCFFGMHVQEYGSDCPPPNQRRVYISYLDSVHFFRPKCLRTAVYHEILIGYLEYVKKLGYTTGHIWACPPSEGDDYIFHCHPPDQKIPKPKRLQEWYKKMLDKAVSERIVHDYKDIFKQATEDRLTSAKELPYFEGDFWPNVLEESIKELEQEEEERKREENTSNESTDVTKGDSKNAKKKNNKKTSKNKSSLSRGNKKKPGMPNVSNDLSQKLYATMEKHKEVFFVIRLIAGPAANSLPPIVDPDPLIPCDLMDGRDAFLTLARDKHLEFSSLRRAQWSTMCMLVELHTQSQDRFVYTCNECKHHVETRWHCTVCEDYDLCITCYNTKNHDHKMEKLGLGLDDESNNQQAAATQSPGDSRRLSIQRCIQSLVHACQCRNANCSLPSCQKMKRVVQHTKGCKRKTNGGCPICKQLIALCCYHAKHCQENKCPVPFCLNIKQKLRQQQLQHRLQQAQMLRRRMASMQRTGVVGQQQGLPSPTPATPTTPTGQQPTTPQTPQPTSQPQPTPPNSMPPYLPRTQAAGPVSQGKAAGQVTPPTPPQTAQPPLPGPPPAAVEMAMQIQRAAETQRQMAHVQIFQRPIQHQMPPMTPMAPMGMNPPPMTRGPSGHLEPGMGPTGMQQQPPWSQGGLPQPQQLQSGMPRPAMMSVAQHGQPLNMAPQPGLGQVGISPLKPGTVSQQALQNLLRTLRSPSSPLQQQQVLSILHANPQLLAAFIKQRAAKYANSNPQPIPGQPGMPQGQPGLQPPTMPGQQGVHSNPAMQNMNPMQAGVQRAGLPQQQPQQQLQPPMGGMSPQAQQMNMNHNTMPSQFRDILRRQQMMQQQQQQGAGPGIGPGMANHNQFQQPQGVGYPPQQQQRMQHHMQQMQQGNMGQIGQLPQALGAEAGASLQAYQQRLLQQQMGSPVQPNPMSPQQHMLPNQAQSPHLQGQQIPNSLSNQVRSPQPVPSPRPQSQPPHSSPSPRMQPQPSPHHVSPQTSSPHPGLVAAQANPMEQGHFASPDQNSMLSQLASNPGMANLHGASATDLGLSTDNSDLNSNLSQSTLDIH
T1 sequence (Q92793 whole entry, looked up): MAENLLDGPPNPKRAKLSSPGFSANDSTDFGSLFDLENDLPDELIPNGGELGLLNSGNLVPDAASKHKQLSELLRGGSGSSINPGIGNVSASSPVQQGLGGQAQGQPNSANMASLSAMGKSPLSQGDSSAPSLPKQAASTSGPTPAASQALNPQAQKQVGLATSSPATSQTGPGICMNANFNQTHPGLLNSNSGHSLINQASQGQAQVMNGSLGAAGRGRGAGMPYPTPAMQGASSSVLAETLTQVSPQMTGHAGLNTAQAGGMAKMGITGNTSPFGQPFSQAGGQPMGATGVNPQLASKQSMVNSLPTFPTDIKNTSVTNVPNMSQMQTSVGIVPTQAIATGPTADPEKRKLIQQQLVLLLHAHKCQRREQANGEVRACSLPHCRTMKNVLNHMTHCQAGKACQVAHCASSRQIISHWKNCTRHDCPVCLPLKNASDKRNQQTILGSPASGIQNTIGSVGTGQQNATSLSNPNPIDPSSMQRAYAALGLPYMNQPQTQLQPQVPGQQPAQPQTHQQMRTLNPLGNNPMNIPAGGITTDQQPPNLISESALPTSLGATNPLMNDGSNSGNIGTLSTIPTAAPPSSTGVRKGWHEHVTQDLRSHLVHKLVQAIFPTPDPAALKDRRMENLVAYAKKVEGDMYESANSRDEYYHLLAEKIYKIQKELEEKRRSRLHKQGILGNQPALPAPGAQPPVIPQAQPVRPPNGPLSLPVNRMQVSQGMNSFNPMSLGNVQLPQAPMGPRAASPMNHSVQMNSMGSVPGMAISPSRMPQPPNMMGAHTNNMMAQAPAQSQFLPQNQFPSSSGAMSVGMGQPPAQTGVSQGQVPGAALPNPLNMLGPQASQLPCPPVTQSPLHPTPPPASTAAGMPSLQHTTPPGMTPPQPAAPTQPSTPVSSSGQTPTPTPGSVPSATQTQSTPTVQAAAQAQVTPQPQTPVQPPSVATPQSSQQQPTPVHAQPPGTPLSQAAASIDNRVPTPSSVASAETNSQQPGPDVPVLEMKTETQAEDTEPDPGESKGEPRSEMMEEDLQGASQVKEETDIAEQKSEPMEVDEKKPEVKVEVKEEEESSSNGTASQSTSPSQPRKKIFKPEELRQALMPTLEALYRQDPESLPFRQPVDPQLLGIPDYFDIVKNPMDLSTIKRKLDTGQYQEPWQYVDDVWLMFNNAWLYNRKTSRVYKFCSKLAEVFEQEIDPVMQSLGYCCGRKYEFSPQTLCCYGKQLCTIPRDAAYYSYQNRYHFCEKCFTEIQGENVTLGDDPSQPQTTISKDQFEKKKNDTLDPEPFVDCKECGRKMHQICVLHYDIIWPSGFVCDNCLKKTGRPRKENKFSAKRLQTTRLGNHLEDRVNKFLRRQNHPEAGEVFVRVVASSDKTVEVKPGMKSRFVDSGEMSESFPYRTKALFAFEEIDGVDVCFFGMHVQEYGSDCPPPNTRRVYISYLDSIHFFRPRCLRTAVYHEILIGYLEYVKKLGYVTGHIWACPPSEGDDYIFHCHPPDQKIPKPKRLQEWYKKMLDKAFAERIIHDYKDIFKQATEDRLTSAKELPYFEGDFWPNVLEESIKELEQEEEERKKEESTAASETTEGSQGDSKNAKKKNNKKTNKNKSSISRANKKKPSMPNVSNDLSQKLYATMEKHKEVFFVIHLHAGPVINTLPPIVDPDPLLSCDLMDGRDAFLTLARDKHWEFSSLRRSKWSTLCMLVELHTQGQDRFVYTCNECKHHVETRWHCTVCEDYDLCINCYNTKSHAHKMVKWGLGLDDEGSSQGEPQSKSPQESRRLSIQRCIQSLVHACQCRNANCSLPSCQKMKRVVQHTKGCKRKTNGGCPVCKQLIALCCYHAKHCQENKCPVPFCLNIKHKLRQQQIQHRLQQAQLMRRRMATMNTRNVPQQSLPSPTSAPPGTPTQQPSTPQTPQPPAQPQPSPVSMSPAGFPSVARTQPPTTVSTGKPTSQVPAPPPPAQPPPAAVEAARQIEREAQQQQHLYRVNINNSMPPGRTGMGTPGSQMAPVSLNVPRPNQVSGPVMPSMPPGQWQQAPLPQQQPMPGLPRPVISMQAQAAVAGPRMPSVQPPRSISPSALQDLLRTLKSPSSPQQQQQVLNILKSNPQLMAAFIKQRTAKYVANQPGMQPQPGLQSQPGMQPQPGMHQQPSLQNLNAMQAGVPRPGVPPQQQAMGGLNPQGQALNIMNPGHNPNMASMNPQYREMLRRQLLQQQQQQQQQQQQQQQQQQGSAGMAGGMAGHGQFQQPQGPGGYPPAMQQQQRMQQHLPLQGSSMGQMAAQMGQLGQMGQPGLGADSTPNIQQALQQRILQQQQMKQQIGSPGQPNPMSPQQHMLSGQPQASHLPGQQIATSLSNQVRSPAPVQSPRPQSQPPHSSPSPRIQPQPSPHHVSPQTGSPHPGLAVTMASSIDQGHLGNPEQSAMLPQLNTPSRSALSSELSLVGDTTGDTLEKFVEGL

IC50 (PC-3): 25.8 µM | inhibition [3]: Dose-dependent effect | inhibition [4]: Active | inhibition [5]: Active | IC50 (MCF7): 7.46 µM | IC50 (LNCaP [7]): 2.01 µM | IC50 (CWR22R [8]): 2.13 µM | IC50 (MDA-MB-231): 36 µM | inhibition [10]: Active | inhibition [11]: Active | inhibition [12]: Active
SMILES: COc1ccc2c(c1)c(C(=O)Nc1cc(C(=O)OC(C)(C)C)cc(-c3cnn(C)c3)c1F)cn2C(C)=O
Activity (CWR22R [1]): <10% | Activity (LNCaP C4-2B [2]): <10% | Activity (CWR22R [6]): Dose-dependent effect | IC50 (L02): 40 µM | Ratio IC50 (CWR22R [9]): 17 | Ratio IC50 (LNCaP [13]): 17 | IC50 (HFL1): > 100 µM | IC50 (Hs-578T): 15.1 µM | Activity (LNCaP C4-2B [14]): Dose-dependent effect
